Read-outs that look alike come from different tables or passages of the source.

The target of one test is T1, CB1 cannabinoid receptor (Rattus norvegicus, UniProt P20272).
T1 construct: membranes were prepared from rat forebrain membranes; from tissue; host or cells: rat forebrain
The test is described as follows: CB1 receptor binding, [3H]CP-55,940 displacement. The settings on record: rat forebrain membranes. As for the experimental part:
Some inventive analogs were tested for CB2 receptor binding affinity and for CB1 receptor affinity (to determine selectivity). […] The lower the Ki value, the higher the binding affinity. […] For the CB1 receptor binding studies, membranes were prepared from rat forebrain membranes according to the procedure of P. R. Dodd et al, A Rapid Method for Preparing Synaptosomes: Comparison with Alternative Procedures, Brain Res., 107-118 (1981). The binding of the novel analogues to the CB1 cannabinoid receptor was assessed as described in W. A. Devane et al, Determination and Characterization of a Cannabinoid Receptor in a Rat Brain, Mol. Pharmacol., 34, 605-613 (1988) and A. Charalambous et al, 5′-azido Δ^8-THC: A Novel Photoaffinity Label for the Cannabinoid Receptor, J. Med. Chem., 35, 3076-3079 (1992) with the following changes. The above articles are incorporated by reference herein.
Membranes, previously frozen at −80° C., were thawed on ice. To the stirred suspension was added three volumes of TME (25 mM Tris-HCl buffer, 5 mM MgCl2 and 1 mM EDTA) at a pH 7.4. The suspension was incubated at 4° C. for 30 min. At the end of the incubation, the membranes were pelleted and washed three times with TME.
(§1) The treated membranes were subsequently used in the binding assay described below. Approximately 30 μg of membranes were incubated in silanized 96-well microtiter plate with TME containing 0.1% essentially fatty acid-free bovine serum albumin (BSA), 0.8 nM [^3H] CP-55,940, and various concentrations of test materials in a final volume of 200 μL. The assays were incubated for 1 hour at 30° C. and then immediately filtered using Packard Filtermate 196 harvester and Whatman GF/C filterplates and washed with wash buffer (TME) containing 0.5% BSA. Radioactivity was detected using MicroScint 20 scintillation cocktail added directly to the dried filterplates, and the filterplates were counted using a Packard Instruments Top-Count. Nonspecific binding was assessed using 100 nM CP-55,940. Data collected from three independent experiments performed with duplicate determinations was normalized between 100% and 0% specific binding for [^3H] CP-55,940, determined using buffer and 100 nM CP-55,940. The normalized data was analyzed using a 4-parameter nonlinear logistic equation to yield IC50 values.

A further test addresses T2, CB2 receptor (Mus musculus, UniProt P47936).
T2 construct: membranes were prepared from frozen mouse spleen; from tissue; host or cells: mouse spleen
Kind of test: CB2 receptor binding, [3H]CP-55,940 displacement. The settings on record: mouse spleen membranes. As for the experimental part:
as §1
For the CB2 receptor binding studies, membranes were prepared from frozen mouse spleen essentially according to the procedure of P. R. Dodd et al, A Rapid Method for Preparing Synaptosomes: Comparison with Alternative Procedures, Brain Res., 226, 107-118 (1981) which is incorporated by reference herein. Silanized centrifuge tubes were used throughout to minimize receptor loss due to adsorption. The CB2 binding assay was conducted in the same manner as for the CB1 binding assay. The binding affinities (Ki) were also expressed in nanomoles (nM).

In another test the test system is anandamide transporter. The test is described as follows: [3H]Anandamide transporter competition assay. It counts as cell-based. The settings on record: human CCF-STG1 astrocytoma cells, 10 nM [3H]anandamide. The procedure:
Human CCF-STG1 astrocytoma cells (American Type Culture collection) were grown in RPMI1640 culture medium containing 2 mM L-glutamine, 4.5 g/L glucose, 10 mM HEPES, and 1.0 mM sodium pyruvate, 10% FBS, cultures at 37° C. with 5% CO2. For standard competition assays, confluent cells grown in 24-well plates were rinsed and preincubated for 10 min at 37° C. in assay buffer (Hank's Balanced Salt Solution containing 0.1% DMSO, 10 mM HEPES) plus test compounds (at their final concentrations of 0.01-100 μM). After having discarded the preincubation media, the cells were incubated for 4 min in 0.2 ml assay buffer containing 10 nM [^3H] anandamide (137.6 Ci/mmol, New England Nuclear) plus test compounds. Reactions were stopped by removing the incubation media and rinsing the cells three times with 0.5 ml of ice-cold HBSS buffer containing 0.1% fatty acid-free Bovine Serum Albumin (sigma). Radioactive material in Triton X-100 cell extracts was measured by liquid scintillation counting. A minimum of three independent experiments conducted in six replicates was used to define the concentration needed to produce half-maximal inhibition (IC50) for each compound. IC50 values were obtained by nonlinear regression fitting of the data, using the PRIZM software package. Data are expressed as mean±SEM.

Test [1] addresses T3, FAAH (fatty acid amide hydrolase) (Rattus norvegicus, UniProt P97612).
T3 construct: Anandamide Amidase Activity in Rat Brain Microsomes; from tissue; host or cells: rat brain microsomes (by the cited procedure)
T3 sequence (P97612 1-579): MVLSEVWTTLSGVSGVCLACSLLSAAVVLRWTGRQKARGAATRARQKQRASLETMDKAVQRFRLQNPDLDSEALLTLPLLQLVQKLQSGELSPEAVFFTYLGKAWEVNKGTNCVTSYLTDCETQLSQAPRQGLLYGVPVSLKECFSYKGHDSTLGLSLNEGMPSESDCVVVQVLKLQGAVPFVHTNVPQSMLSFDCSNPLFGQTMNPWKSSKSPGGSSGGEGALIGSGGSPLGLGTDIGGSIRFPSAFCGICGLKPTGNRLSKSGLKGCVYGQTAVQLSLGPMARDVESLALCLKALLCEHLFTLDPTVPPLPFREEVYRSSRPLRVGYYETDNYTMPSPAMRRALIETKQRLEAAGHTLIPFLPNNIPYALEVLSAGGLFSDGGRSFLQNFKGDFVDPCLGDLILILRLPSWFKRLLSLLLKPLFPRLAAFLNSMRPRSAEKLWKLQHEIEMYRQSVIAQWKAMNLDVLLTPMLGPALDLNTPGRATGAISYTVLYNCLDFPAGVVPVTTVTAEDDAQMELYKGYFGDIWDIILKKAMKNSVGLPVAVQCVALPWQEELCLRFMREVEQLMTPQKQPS
Kind of test: FAAH screening: inhibition of anandamide metabolism to arachidonic acid. It is filed as biochemical. The settings on record: 25 nmoles compound with 25 nmoles AEA, 75 μg enzyme, 250 μL, 15 min. As for the experimental part: The FAAH (fatty acid amide hydrolase) enzyme preparation was obtained according to the procedure of Lang and Makriyannis et al High Performance Liquid Chromatographic Determination of Anandamide Amidase Activity in Rat Brain Microsomes, Analytical Biochemistry (238): 40-45, 1996.
All compound solutions were made to a concentration of 10 mM in DMSO. Three tests were performed on each compound: hydrolysis, to determine the stability of the compound in assay conditions without the enzyme present; metabolism, to determine the stability of the compound with the enzyme present; and inhibition of anandamide (native substrate) metabolism to arachidonic acid.
Again the reaction mixture was treated in the same manner as described above and the concentrations of AEA and AA were calculated using external standards. Percent inhibition was calculated using the following equation: % Inhib.=(AA15-AA0)i/(AA15-AA0)s where (AA15-AA0)c is the amount of arachidonic acid formed over 15 minutes from AEA with the inhibitor present and (AA15-AA0)s is the amount of arachidonic acid formed over 15 minutes from AEA when the inhibitor is not present. […] The reaction mixtures were treated as described above and the amount of AA formed was calculated. The software package GraphPad Prism was utilized to calculate IC50 and Ki. HPLC Conditions:
Chromatographic separation was achieved using an Ultrasphere ODS Pre-column (4.6×45 mm) from Beckman. Hardware consisted of a Waters Millennium HPLC system with a 20 μL injection loop. The mobile phase consisted of 8.5% o-phosphoric acid:acetonitrile (3:7), run isocratically at a rate of 1 mL/min and detection at 204 nm. The total run time was 8 minutes with AEA eluting at 2.2 minutes and AA at 6.0 minutes.

Setting [2] is: with PMSF (second value of cell), read-out: Ki CB1 (nM) (o/w PMSFQ).
The mark [3] stands for this setting: without PMSF (first value of cell), read-out: Ki CB1 (nM) (o/w PMSFQ).
[4] abbreviates: with PMSF (second value of cell), read-out: Ki CB1 (nM) (o/w PMSF).
[5] abbreviates: without PMSF (first value of cell), read-out: Ki CB1 (nM) (o/w PMSF).

T1 sequence (P20272 whole entry): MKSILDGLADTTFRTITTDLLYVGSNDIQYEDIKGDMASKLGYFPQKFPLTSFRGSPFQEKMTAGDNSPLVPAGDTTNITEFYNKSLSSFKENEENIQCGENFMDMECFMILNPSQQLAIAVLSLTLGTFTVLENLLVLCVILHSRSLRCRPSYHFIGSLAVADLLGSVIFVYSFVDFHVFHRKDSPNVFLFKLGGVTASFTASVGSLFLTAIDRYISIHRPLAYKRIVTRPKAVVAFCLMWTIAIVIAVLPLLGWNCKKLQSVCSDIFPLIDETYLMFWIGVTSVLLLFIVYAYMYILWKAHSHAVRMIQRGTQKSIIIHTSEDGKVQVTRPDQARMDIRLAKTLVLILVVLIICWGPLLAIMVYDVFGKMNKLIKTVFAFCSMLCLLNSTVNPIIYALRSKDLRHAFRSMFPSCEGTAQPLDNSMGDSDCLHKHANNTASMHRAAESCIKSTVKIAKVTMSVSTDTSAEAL
T2 sequence (P47936 whole entry): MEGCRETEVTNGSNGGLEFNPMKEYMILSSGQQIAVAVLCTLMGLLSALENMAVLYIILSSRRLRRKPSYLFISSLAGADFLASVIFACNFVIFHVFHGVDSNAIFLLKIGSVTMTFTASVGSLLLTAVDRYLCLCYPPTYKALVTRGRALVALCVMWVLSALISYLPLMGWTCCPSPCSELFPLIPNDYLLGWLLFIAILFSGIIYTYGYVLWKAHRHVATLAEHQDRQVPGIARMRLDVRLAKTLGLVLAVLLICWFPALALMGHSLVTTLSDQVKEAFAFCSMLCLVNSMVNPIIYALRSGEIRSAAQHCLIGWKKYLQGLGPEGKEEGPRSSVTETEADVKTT

Turning to `[N-]=[N+]=NCCCCC/C=C\C/C=C\C/C=C\C/C=C\CCCC(=O)NC1CC1` [Compound A5], the Ki at CB1 cannabinoid receptor (setting [2]) is 0.9 nM; on CB1 cannabinoid receptor (setting [3]), 26.7 nM; at CB2 receptor it was 57.6 nM. Besides, the half-maximal inhibitory concentration (IC50) in the test on anandamide transporter (read-out: IC50 AT inhibition) was 2900 nM. Also, the “FAAH % Inhibition” value in test [1] is recorded as 7%.

`[N-]=[N+]=NCCCC/C=C\C/C=C\C/C=C\C/C=C\CCCC(=O)NC1=NCCS1` [Compound A8]: the results for the Ki on CB1 cannabinoid receptor (setting [2]), on CB1 cannabinoid receptor (setting [3]) and on CB2 receptor were 106 nM, 1300 nM and 513 nM, respectively. Also, the half-inhibitory concentration (IC50) in the test on anandamide transporter (read-out: IC50 AT inhibition) was 2300 nM. Moreover, in test [1], the “FAAH % Inhibition” value was 49%.

For the molecule `[N-]=[N+]=NCCCC/C=C\C/C=C\C/C=C\C/C=C\CCCC(=O)NC1CCC1` [Compound A9], the Ki on CB1 cannabinoid receptor (setting [2]) came out at 31.9 nM; at CB1 cannabinoid receptor (setting [3]), 112 nM; at CB2 receptor it was 72.4 nM. In addition, in test [1], the “FAAH % Inhibition” value is recorded as 58%.

`CC(C)NC(=O)CCC/C=C\C/C=C\C/C=C\C/C=C\CCCCN=C=S` [Compound A10]: the Ki turned out to be 7.7 nM at CB1 cannabinoid receptor (setting [2]), 95.2 nM on CB1 cannabinoid receptor (setting [3]) and 52.7 nM on CB2 receptor. Further, the “FAAH % Inhibition” value in test [1] came out at 84%.

Take `O=C(CCC/C=C\C/C=C\C/C=C\C/C=C\CCCCN=C=S)NCC1CC1` [Compound A11]: the Ki was determined as 34.2 nM at CB1 cannabinoid receptor (setting [2]), 91.7 nM at CB1 cannabinoid receptor (setting [3]) and 70.9 nM at CB2 receptor. For the same molecule, the “FAAH % Inhibition” value in test [1] came to 90%.

`[N-]=[N+]=NCCCCC/C=C\C/C=C\C/C=C\C/C=C\CCCC(=O)Nc1ccc(O)cc1` [Compound A13]: the Ki came out at 531 nM at CB1 cannabinoid receptor (setting [2]), 3830 nM at CB1 cannabinoid receptor (setting [3]) and 335 nM on CB2 receptor. In addition, the IC50 in the test with anandamide transporter (read-out: IC50 AT inhibition) was 700 nM. Further, the “FAAH % Inhibition” value in test [1] came out at 33%.

Take `COc1cc(CNC(=O)CCC/C=C\C/C=C\C/C=C\C/C=C\CCCCCN=[N+]=[N-])ccc1O` [Compound A15]: the Ki on CB1 cannabinoid receptor (setting [2]) amounted to 13.2 nM; at CB1 cannabinoid receptor (setting [3]), 48.8 nM; on CB2 receptor, 74.7 nM. The “FAAH % Inhibition” value in test [1] came to 38%.

For the molecule `CCCCCN(C)C/C=C\C/C=C\C/C=C\C/C=C\CCCC(=O)NC1CC1` [Compound A21], the results for the Ki at CB1 cannabinoid receptor (setting [2]), on CB1 cannabinoid receptor (setting [3]) and on CB2 receptor were 66.3 nM, 76.5 nM and 238 nM, respectively.

Regarding `CCCCCN(C)C/C=C\C/C=C\C/C=C\C/C=C\CCCCNC(=O)COC` [Compound A22], on CB2 receptor, the Ki was 224 nM.

As to `CCCCCN(C)C/C=C\C/C=C\C/C=C\C/C=C\CCCCNC(C)=O` [Compound A23], the Ki was found to be 627 nM at CB1 cannabinoid receptor (setting [2]), 813 nM at CB1 cannabinoid receptor (setting [3]) and 1760 nM on CB2 receptor.

At CB2 receptor, `CCCCCN(C)C/C=C\C/C=C\C/C=C\C/C=C\CCCCNC(=O)COC` [Compound A24] displayed a Ki of 435 nM.

With `CCCCCN(C)C/C=C\C/C=C\C/C=C\C/C=C\CCCCNC(C)=O` [Compound A25], the Ki on CB1 cannabinoid receptor (setting [2]) amounted to 1030 nM; at CB1 cannabinoid receptor (setting [3]) it was 1500 nM; at CB2 receptor, 3650 nM.

`C[C@H](CO)NC(=O)CCC/C=C\C/C=C\C/C=C\C/C=C\C12CC3CC(CC(C3)C1)C2` [Compound A28] yielded a Ki at CB2 receptor of 3460 nM.

Molecule `C[C@H](CO)NC(=O)CCC/C=C\C/C=C\C/C=C\C/C=C\CCC12CC3CC(CC(C3)C1)C2` [Compound A29] returned a Ki on CB2 receptor of 5670 nM.

Take `CCCCC/C=C\C/C=C\C/C=C\C/C=C\CCCCOC(=O)NC1CC1` [Compound B6]: the Ki was found to be 75.1 nM at CB1 cannabinoid receptor (setting [4]), 181 nM on CB1 cannabinoid receptor (setting [5]) and 983 nM at CB2 receptor. In the test with anandamide transporter (read-out: IC50 (AT inhib.)), the half-inhibitory concentration (IC50) was 15500 nM.

As to `CCCCC/C=C\C/C=C\C/C=C\C/C=C\CCCCOC(=O)NC1CCC1` [Compound B7], the Ki at CB1 cannabinoid receptor (setting [4]) is 995 nM; on CB1 cannabinoid receptor (setting [5]), 1410 nM; on CB2 receptor, 5310 nM. For the same molecule, in the test on anandamide transporter (read-out: IC50 (AT inhib.)), the IC50 is 15500 nM.

Take `CCCCC/C=C\C/C=C\C/C=C\C/C=C\CCCCOC(=O)NC1CCCCC1` [Compound B8]: the figures for the Ki on CB1 cannabinoid receptor (setting [4]), on CB1 cannabinoid receptor (setting [5]) and at CB2 receptor were 1470 nM, 3960 nM and 781 nM, respectively. Moreover, the IC50 in the test on anandamide transporter (read-out: IC50 (AT inhib.)) amounted to 33000 nM.

For the molecule `CCCCC/C=C\C/C=C\C/C=C\C/C=C\CCCCNC(=O)OC[C@H](C)O` [Compound B16], the Ki at CB1 cannabinoid receptor (setting [4]) is 686 nM; on CB1 cannabinoid receptor (setting [5]) it was 1200 nM; at CB2 receptor it was 289 nM. For the same molecule, the IC50 in the test on anandamide transporter (read-out: IC50 (AT inhib.)) amounted to 3290 nM.

As a reminder, the IC50 is the concentration at which inhibition is half-maximal.
